Laboratory results reported in PubChem BioAssay (NCI).
Several values for one entry are separate records, joined by “and”; a condition that tells them apart may be missing. Identical values can stand only once.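 Protocol summary: plate cells (96-well), add compound at 5 concentrations, incubate 48 h, interpolate endpoints linearly. The concentration for 50% growth inhibition is given as GI50. The concentration for full growth arrest is given as TGI.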

What was measured:
Test in all cases: DTP human tumour cell line panel, 48 h
SK-MEL-28 melanoma = tested on: SK-MEL-28 melanoma
T-47D breast = tested on: T-47D breast
COLO 205 colon = tested on: COLO 205 colon
RXF 393 renal = tested on: RXF 393 renal
SK-MEL-2 melanoma = tested on: SK-MEL-2 melanoma
SW-620 colon = tested on: SW-620 colon
HCC-2998 colon = tested on: HCC-2998 colon
NCI-H460 lung = tested on: NCI-H460 lung
SN12C renal = tested on: SN12C renal
UACC-62 melanoma = tested on: UACC-62 melanoma

Row | SMILES | TGI (SK-MEL-28 melanoma) | TGI (T-47D breast) | TGI (COLO 205 colon) | GI50 (RXF 393 renal) | TGI (RXF 393 renal) | GI50 (SK-MEL-2 melanoma) | TGI (SK-MEL-2 melanoma) | TGI (SW-620 colon) | TGI (HCC-2998 colon) | TGI (NCI-H460 lung) | TGI (SN12C renal) | TGI (UACC-62 melanoma) | GI50 (SK-MEL-28 melanoma) | GI50 (T-47D breast) | GI50 (COLO 205 colon) | GI50 (SN12C renal) | GI50 (UACC-62 melanoma) | GI50 (SW-620 colon) | GI50 (HCC-2998 colon) | GI50 (NCI-H460 lung)
1 | NC(=O)c1ccc(NN=O)nc1 | > 100 µM | > 100 µM | > 100 µM | > 100 µM | > 100 µM | > 100 µM | > 100 µM | > 100 µM | > 100 µM | > 100 µM | > 100 µM | > 100 µM |  |  |  |  |  |  |  | 
2 | CN(C)CCNC(=O)C(C)(C)Oc1ccc(C(=O)c2ccc(Cl)cc2)cc1Cl | 5.14 µM and 3.58 µM | 24.4 µM | 3.7 µM | 9.94 µM | 21.7 µM |  | 32.6 µM | 18.3 µM | 16.7 µM | 20.4 µM | 26.7 µM | 4.29 µM | 2.63 µM | 5.87 µM | 4.41 µM | 3.59 µM | 2.81 µM |  |  | 
3 | CN(Cc1cc(Br)cc(Br)c1O)Cc1cc(Br)cc(Br)c1O | 24.6 µM | 23.6 µM | 15.2 µM | 2.65 µM | 15.3 µM | 2.87 µM | 11.8 µM | 16.9 µM | 17 µM | 13.2 µM | 16.7 µM | 11.8 µM | 10.9 µM | 2.27 µM | 3.72 µM | 2.5 µM | 1.8 µM | 2.33 µM | 3.5 µM | 0.557 µM
4 | CCN(CC)CCOc1ccccc1/C=C/c1noc2ccccc12 | 21.1 µM | 32.4 µM | 24.1 µM |  | 9.97 µM |  | 16.7 µM | 23 µM | 18 µM | 25.3 µM | 24.6 µM | 22.4 µM |  |  |  |  |  |  |  | 
5 | C/C(=C\CCc1ccoc1)CC/C=C(\C)CCCN1CCOCC1 | 24 µM | 13.1 µM | 12.4 µM | 9.17 µM | 23.2 µM | 12.2 µM | 25.9 µM | 14.6 µM | 23.8 µM | 17.8 µM | 21 µM | 18.2 µM | 10.3 µM | 3.62 µM | 3.15 µM | 6.83 µM | 5.02 µM | 3.43 µM | 10.9 µM | 4.79 µM
6 | Clc1ccc2c(c1)N(c1ncnc3ccc(-c4cnc5[nH]ccc5c4)cc13)CC2 | 27.7 µM | 6.48 µM | > 100 µM | 0.442 µM | 12.2 µM | 2.88 µM | 22.8 µM | 14.7 µM | 68.9 µM | 12.4 µM | 20 µM | 21.1 µM | 10.2 µM | 0.501 µM | 3.21 µM | 1.95 µM | 0.982 µM | 1.38 µM | 11.3 µM | 0.952 µM
7 | CCCCCCCCCCCCCC1=NCCN1CCO | 4.02 µM | 13.1 µM | 3.97 µM | 2.72 µM | 7.43 µM | 2.86 µM | 9.01 µM | 5.22 µM | 16.5 µM | 4.63 µM | 6.47 µM | 3.95 µM | 1.99 µM | 4.57 µM | 2.11 µM | 2.57 µM | 1.96 µM | 2.25 µM | 4.03 µM | 2.13 µM
8 | Cc1ccc(C(SCC(N)C(=O)O)(c2ccc(C)cc2)c2ccc(C)cc2)cc1 (stereo not drawn) | 22.7 µM | 21.9 µM | 5.62 µM | 1.46 µM | 14.8 µM | 2.72 µM | 20.5 µM | 15.8 µM | 11 µM | 12 µM | 18.4 µM | 13.8 µM | 7.47 µM | 3.5 µM | 2.14 µM | 2.74 µM | 1.03 µM | 1.64 µM | 2.5 µM | 2.3 µM
9 | CNC(=O)OCc1c2ccncc2c(C)c2c1[nH]c1ccccc12 | 2.25 µM | 9.61 µM | 1.82 µM |  | 0.17 µM |  | 0.548 µM | 2.38 µM | 1.08 µM | 1.81 µM | 1.94 µM | 0.869 µM |  |  |  |  |  |  |  | 
10 | COc1ccc2c(c1)[nH]c(=O)c1c3cc(OC)ccc3cn21 | 2.01 µM | 3.24 µM | 0.0923 µM | < 0.01 µM | 0.274 µM | 0.0538 µM | 2.43 µM | 1.31 µM | 0.0701 µM | 0.363 µM | 2.3 µM | 1.4 µM | 0.0102 µM | 1.03 µM | 0.0274 µM | 0.0362 µM | < 0.01 µM | < 0.01 µM | 0.0159 µM | 0.0282 µM
11 | O=C(c1ccccc1)c1ccc(Oc2ccc([N+](=O)[O-])cc2[N+](=O)[O-])cc1 | 36.7 µM | 23.5 µM | 5.46 µM | 3.32 µM | 11.8 µM | 4.57 µM | 22.6 µM | 23.7 µM | 25.3 µM | 33.3 µM | 19.1 µM | 32.2 µM | 7.03 µM | 2.82 µM | 2.4 µM | 3.25 µM | 4.1 µM | 4.36 µM | 11.4 µM | 8.62 µM
12 | C=CC(=O)NCc1cccc(Nc2ncc(Br)c(NCCCNC(=O)C3CCC3)n2)c1 | 9.94 µM and 9.29 µM | 12.5 µM and 22.5 µM | 2.01 µM | 0.166 µM and 0.123 µM | 0.844 µM and 0.468 µM | 2.17 µM and 2.93 µM | 5.57 µM and 7.08 µM | 12.5 µM and 11.7 µM | 5.27 µM and 10.1 µM | 4.7 µM and 5.55 µM | 12.5 µM and > 25 µM | 5.23 µM and 7.37 µM | 2.44 µM and 2.26 µM | 4.86 µM and 5.07 µM | 0.403 µM | 0.621 µM and 0.45 µM | 2.3 µM and 2.9 µM | 0.661 µM and 1.15 µM | 1.83 µM and 3.03 µM | 0.941 µM and 1.27 µM
13 | O=[N+]([O-])c1ccccc1N/N=C\c1c[nH]c2ccccc12 | > 100 µM | > 100 µM | > 100 µM | 10.7 µM | 57.8 µM | 26.4 µM | > 100 µM | > 100 µM | > 100 µM | > 100 µM | > 100 µM | > 100 µM | > 100 µM | 3.52 µM | 24.5 µM | 10.2 µM | 17.1 µM | 17.8 µM | 10.9 µM | 10.3 µM
14 | O=C1c2nsnc2C(=O)c2c(F)c(F)c(F)c(F)c21 | 1.76 µM | 2.37 µM | 0.527 µM | 0.339 µM | 1.09 µM | 2.17 µM | 4.81 µM | 0.348 µM | 3.14 µM | 2.34 µM | 2.28 µM | 2.5 µM | 0.594 µM | 0.473 µM | 0.236 µM | 0.998 µM | 1.2 µM | 0.172 µM | 1.56 µM | 0.758 µM
